According to article PMC5909954 (Toxicology, 2018):
pIC50: −log10 of the molar value.

What was measured:
[1] = target: Complex V (F1FO ATP synthase); test: immunocapture-based OXPHOS activity assay; assay type: biochemical, Bos taurus
Complex I = test: immunocapture-based OXPHOS activity assay; assay type: biochemical, Bos taurus

| SMILES | pIC50 [1] | pIC50 (Complex I) |
| --- | --- | --- |
| C/C(O)=C(\C#N)C(=O)Nc1ccc(C(F)(F)F)cc1 [A77 1726, 2-Cyano-3-hydroxy-N-[4-(trifluoromethyl)phenyl]-2-butenamide] | 4.20 | 3.64 |
| Cc1oncc1C(=O)Nc1ccc(C(F)(F)F)cc1 [leflunomide] | 4.46 | 3.70 |
